We go through 7 molecules from patent US20090081639A1, “Assay for sensitivity to chemotherapeutic agents” (priority 2007, published 2009).

Type in all cases: cell-based, human
Assay [1] has as its system THP-1 Acute myeloid leukemia cells. The assay can be described thus: Chemotherapeutic Sensitivity Assay (Gus and/or LacZ output), batch infection with GLV-1h68, Example 3. As to conditions: for MIC VV / LacZ/infection inhibition: THP-1, GLV-1h68 MOI 10, 24 hours, visual; for MIC VV: β-glucuronidase (Gus) output; for LacZ/infection inhibition: β-galactosidase output.
Assay [2] has as its system THP-1 cells. Briefly: MTT cell viability assay, Example 3. The settings on record: for MIC MTT / concentration at which cell death / inhibition was observed in the MTT assay: THP-1, approximately 48 hours; for MIC MTT: visual; for concentration at which cell death / inhibition was observed in the MTT assay: text of Example 3.
Assay [3] has as its system HL-60 cells.
Assay [4] deals with THP-1 cells.
The subject of assay [5] is KG1a cells.
Assay [6] deals with HL-60 cells. The assay can be described thus: Cell viability and growth assay (MTT reduction), Example 2. The settings on record: HL-60, approximately 48 hours, visual assessment.
The subject of assay [7] is THP-1 cells. The description is as above. The settings on record: THP-1, approximately 48 hours, visual assessment.
Assay [8] concerns KG1a cells. The assay is described as above. The settings on record: approximately 48 hours, visual assessment.
Where [9] appears, read: THP-1, maximal concentration used.
Setting [10] is: THP-1, next lowest concentration.
[11] abbreviates: THP-1, GLV-1h68, 24 hours, text of Example 3.

Each structure is given as a SMILES string. Values after ≈ are worked out from the molar mass of the structure shown.

As for `O=c1[nH]cc(F)c(=O)[nH]1` [5-Fluorouracil, 5-fluorouracil], in assay [1], the “MIC VV” value stood at 1.9 µM (≈ 0.247 µg/mL). The “concentration giving very pale blue/pink color in the β-glucuronidase assay, indicating partial cell killing” value in assay [1] (THP-1, highest drug concentration tested) was 1.9 µM. In addition, the “MIC MTT” value against THP-1 cells [2] stood at 1.9 µM (≈ 0.247 µg/mL). For the same molecule, the MTT assay observation entry in the assay on THP-1 cells [2] (setting [9]) is recorded as “cell death”; with THP-1 cells [2] (setting [10]), “only slight cell death”.

`Nc1ccn([C@@H]2O[C@H](CO)[C@@H](O)[C@@H]2O)c(=O)n1` [Ara-C, cytosine arabinoside]: the “β-galactosidase expression (P7.5k early/late promoter) in presence of Ara-C” value with HL-60 cells [3] (HL-60, GLV-1h68 MOI 10, 1 nM-1 mM Ara-C, 24 hours, X-gal, visual assessment) is given as “equally robust in the presence or absence of Ara-C”; in the assay on THP-1 cells [4] (THP-1, GLV-1h68 MOI 10, 1 nM-1 mM Ara-C, 24 hours, X-gal, visual assessment) it was “equally robust in the presence or absence of Ara-C”; with KG1a cells [5] (GLV-1h68 MOI 10, 1 nM-1 mM Ara-C, 24 hours, X-gal, visual assessment), “equally robust in the presence or absence of Ara-C”. Moreover, the “effect on β-glucuronidase expression (P11k late promoter)” value in the assay with HL-60 cells [3] (HL-60, GLV-1h68 MOI 10, 1 nM-1 mM Ara-C, 24 hours, X-gluc, visual assessment) is “dose-dependent inhibition”; in the assay on THP-1 cells [4] (THP-1, GLV-1h68 MOI 10, 1 nM-1 mM Ara-C, 24 hours, X-gluc, visual assessment) it was “dose-dependent inhibition”; in the assay on KG1a cells [5] (GLV-1h68 MOI 10, 1 nM-1 mM Ara-C, 24 hours, X-gluc, visual assessment) it was “dose-dependent inhibition”. The “concentration at which β-glucuronidase expression was undetectable by eye (complete abrogation of viral late transcription)” value in the assay on HL-60 cells [3] (HL-60, GLV-1h68 MOI 10, 24 hours, printed as 1 mM to 1 μM) is not below 1 µM; with THP-1 cells [4] (THP-1, GLV-1h68 MOI 10, 24 hours, printed as 1 mM to 1 μM) it was not below 1 µM. Further, in the assay on KG1a cells [5] (GLV-1h68 MOI 10, 24 hours, 'as low as'), the “concentration at which late viral transcription, as measured by β-glucuronidase expression, was abrogated” value is not below 100 nM. For the same molecule, the entries for the “concentration at which reduction of MTT was abrogated” value with HL-60 cells [6], in the assay with THP-1 cells [7] and in the assay on KG1a cells [8] were not below 1 µM, not below 1 µM and not below 100 nM, respectively. Also, the “concentration at which inhibition of β-glucuronidase expression was observed” value (“concentration at which inhibition” for short) in assay [1] (setting [11]) is not below 1 µM. Besides, the LacZ/infection inhibition in assay [1] is more than 1000 µM. Besides, the “MIC VV” value in assay [1] turned out to be 1 µM (≈ 0.243 µg/mL). In addition, the β-galactosidase expression result in assay [1] (THP-1, all concentrations less than the maximal concentration of the drug tested) is reported as “unaffected”. Also, the “concentration at which limited inhibition of β-galactosidase expression was seen” value in assay [1] (THP-1, highest concentration of the drug tested) is 1 mM. Further, in the assay with THP-1 cells [2], the “concentration at which cell death / inhibition was observed in the MTT assay” value is not below 1 µM. Moreover, the “MIC MTT” value in the assay with THP-1 cells [2] turned out to be 1 µM (≈ 0.243 µg/mL).

In the case of `N.N.[Cl][Pt][Cl]` [Cisplatin, cisplatin], the “MIC MTT” value with THP-1 cells [2] is 33 µM. Moreover, the “MIC MTT, qualifier in words” value with THP-1 cells [2] (THP-1, line below the MIC MTT value) is on record as “partial”. Also, the results for the MTT assay observation entry with THP-1 cells [2] (setting [9]) and with THP-1 cells [2] (setting [10]) were “cell death” and “only slight cell death”, respectively.

In the case of `O=P1(N(CCCl)CCCl)NCCCO1` (stereo not drawn) [Cyclophosphamide, cyclophosphamide], the “concentration at which β-galactosidase expression was inhibited” value in assay [1] (THP-1, Example 3) was “above 100 μM”. Further, the “concentration at which inhibition” value in assay [1] (setting [11]) is listed as “above 100 μM”. The “MIC VV” value in assay [1] was more than 100 µM. In addition, in the assay with THP-1 cells [2], the “concentration at which cell death / inhibition was observed in the MTT assay” value is “above 100 μM” and the “MIC MTT” value was more than 100 µM.

With `COc1cccc2c1C(=O)c1c(O)c3c(c(O)c1C2=O)C[C@@](O)(C(C)=O)C[C@@H]3O[C@H]1C[C@H](N)[C@H](O)[C@H](C)O1` [Daunorubicin, daunorubicin], the “concentration at which some inhibition of β-galactosidase expression was seen” value in assay [1] (THP-1, Example 3) was “greater than 100 nM”. The “concentration at which dose-dependent inhibition of β-glucuronidase expression starts” value in assay [1] (setting [11]) is not below 10 nM. Also, in assay [1], the LacZ/infection inhibition was more than 0.1 µM and the “MIC VV” value was 0.01 µM (≈ 0.00528 µg/mL). In the assay on THP-1 cells [2], the “concentration at which cell death / inhibition was observed in the MTT assay” value was not below 10 µM and the “MIC MTT” value was determined as 0.01 µM (≈ 0.00528 µg/mL).

Regarding `CC(=O)O[C@@]12CO[C@@H]1C[C@H](O)[C@@]1(C)C(=O)[C@H](O)C3=C(C)[C@@H](OC(=O)[C@H](O)[C@@H](NC(=O)OC(C)(C)C)c4ccccc4)C[C@@](O)([C@@H](OC(=O)c4ccccc4)[C@H]21)C3(C)C` [Docetaxel, docetaxel], the “concentration at which β-galactosidase expression was inhibited” value in assay [1] (THP-1, Example 3) was not below 46 µM. In addition, the “concentration at which inhibition” value in assay [1] (setting [11]) came out at 460 µM. In addition, in assay [1], the LacZ/infection inhibition was more than 46 µM and the “MIC VV” value stood at 460 µM (≈ 372 µg/mL). In the assay on THP-1 cells [2], the “concentration at which cell death / inhibition was observed in the MTT assay” value is 46 µM and the “MIC MTT” value is 46 µM (≈ 37.2 µg/mL).

In the case of `COc1cc([C@@H]2c3cc4c(cc3[C@@H](O[C@@H]3O[C@@H]5CO[C@@H](C)O[C@H]5[C@H](O)[C@H]3O)[C@H]3COC(=O)[C@H]23)OCO4)cc(OC)c1O` [Etopocide, etoposide], in assay [1], the LacZ/infection inhibition is more than 50 µM and the “MIC VV” value turned out to be 5 µM (≈ 2.94 µg/mL). For the same molecule, the “MIC MTT” value against THP-1 cells [2] came out at 5 µM (≈ 2.94 µg/mL).
